Molecules are shown by their SMILES. Entries after “also recorded” stand apart in the source; their conditions may differ. Where two headings read alike, the source gives them in different places.

One series deals with rats. As to conditions: cited from earlier work.
In series [1] the test system is iron overloaded primates. As to conditions: cited from earlier work.
In series [2] the test system is non-iron-overloaded bile duct-cannulated rats. As to conditions: rats po 150 µmol/kg, cited from earlier work; for relative percentages of the iron excreted in the bile and urine [bile/urine]: Cremophor RH-40/water.
The conditions of series [3]: cited from earlier work.
The test system of another series is patients. As to conditions: clinical trial, twice daily dosing; cited from earlier work.
Series [4] has as its system iron overloaded primates. As to conditions: primates po 75 µmol/kg, monosodium salt.
Series [5] relates to rats with normal iron stores. As to conditions: for BUN / SCr: rats po 237 µmol/kg b.i.d. × 7 d (6: euthanized day 8).
Series [6] is described as follows: Ligand-plasma binding, rodent plasma. Type of series: in vitro ADME. As to conditions: 37 °C, 4 h, 3,000 MWCO filter.
A short description of series [7]: Ligand-plasma binding, primate plasma. The following applies: 37 °C, 4 h, 3,000 MWCO filter. Type of series: in vitro ADME.

On to `COCCOCCOCCOc1ccc(C2=N[C@@](C)(C(=O)O)CS2)c(O)c1` [Compound 4, (S)-4,5-dihydro-2-[2-hydroxy-4-(3,6,9-trioxadecyloxy)]-4-methyl-4-thiazolecarboxylic acid], for which the nephrotoxicity result in the series with rats (rats po once or twice daily) was “virtually nephrotoxicity-free”.
With `C[C@]1(C(=O)[O-])CSC(c2ncccc2O)=N1.[Na+]` [Compound 1, (S)-4,5-dihydro-2-(3-hydroxy-2-pyridinyl)-4-methyl-4-thiazolecarboxylic acid], the nephrotoxicity entry with rats (rats po once daily 384 µmol/kg/d) was “severely nephrotoxic”. Moreover, the “relative percentages of the iron excreted in the feces and urine [feces/urine]” value (shortened to “relative percentages … [feces/urine]”) in the series on iron overloaded primates [1] (primates po 150 µmol/kg) is 78/22. Moreover, in series [2], the “relative percentages of the iron excreted in the bile and urine [bile/urine]” value was 93/7; the “time at which deferration had returned to baseline” value is reported as no more than 12 h.
Turning to `C[C@]1(C(=O)[O-])CSC(c2ccccc2O)=N1.[Na+]` [Compound 2, (S)-4,5-dihydro-2-(2-hydroxyphenyl)-4-methyl-4-thiazolecarboxylic acid], the “relative percentages … [feces/urine]” value in the series on iron overloaded primates [1] (primates po 75 µmol/kg) is reported as 76/24. Further, in series [2], the “relative percentages of the iron excreted in the bile and urine [bile/urine]” value was 100/0; the “time at which deferration had returned to baseline” value is no more than 12 h. In series [3], the gastrointestinal toxicity entry was “serious gastrointestinal (GI) problems” and the nephrotoxicity entry is reported as “not overtly nephrotoxic”.
Turning to `C[C@]1(C(=O)[O-])CSC(c2ccc(O)cc2O)=N1.[Na+]` [Compound 3, (S)-2-(2,4-dihydroxyphenyl)-4,5-dihydro-4-methyl-4-thiazolecarboxylic acid], in the series on patients, the “renal findings in patients” value was “increases in blood urea nitrogen (BUN) and serum creatinine (SCr) levels; also recorded: induced proximal tubule nephrotoxicity”.
Consider `C[C@]1(C(=O)[O-])CSC(c2ncc(O)cc2O)=N1.[Na+]` [Compound 6, (S)-4,5-dihydro-2-(3,5-dihydroxy-2-pyridinyl)-4-methyl-4-thiazolecarboxylic acid], for which the “relative percentages … [feces/urine]” value in the series on iron overloaded primates [4] is on record as 58/42. In series [5] (rats po 237 µmol/kg b.i.d., until day 5), the “urinary Kim-1” value is less than 50 ng/kg/24h.
With `COCCOCCOc1ccnc(C2=N[C@@](C)(C(=O)[O-])CS2)c1O.[Na+]` [Compound 10, (S)-4,5-dihydro-2-[3-hydroxy-4-(3,6-dioxaheptyloxy)-2-pyridinyl]-4-methyl-4-thiazolecarboxylic acid], the “binding of the ligand to plasma” value in [6] was “little, if any, binding”. Further, the “binding of the ligand to plasma” value in series [7] is recorded as “little, if any, binding”. Further, in series [5], the BUN result is recorded as “well within the normal range” and the SCr entry is listed as “well within the normal range”.
Turning to `COCCOCCOc1cnc(C2=N[C@@](C)(C(=O)[O-])CS2)c(O)c1.[Na+]` [Compound 8, (S)-4,5-dihydro-2-[3-hydroxy-5-(3,6-dioxaheptyloxy)-2-pyridinyl]-4-methyl-4-thiazolecarboxylic acid], in series [5], the BUN entry is given as “well within the normal range” and the SCr result was “well within the normal range”.

The values above are taken from article PMC3583384 (Journal of medicinal chemistry, 2012).
